From patent US20120028917A1, “Use Of N-(4-((3-(2-Amino-4-Pyrimidinyl)-2-Pyridinyl)Oxy)Phenyl)-4-(4-Methyl-2-Thienyl)-1-Phthalazinamine In The Treatment Of Antimitotic Agent Resistant Cancer” (Amgen Inc., priority 2009, published 2012)
Marks after values point to notes of the source that are not given here.

Experiments:
[1] = tested on: 769P; assay: Cellular EC50, additional cell lines (Table 6-B); type: cell-based; conditions: Homo sapiens, Kidney, P-gp+
Description: (§1) All high-content cell assays were performed on an ArrayScan VTi HCS Reader (Cellomics). Tumor cell lines were treated with AMG 900, AZD1152, MK-0457, or PHA-739358 (concentration range varied based on potency). The cells were prepared for intracellular staining with an anti-p-histone H3 Ser^10 antibody as previously described (1). Detection was performed with an anti-rabbit IgG-alexa-568 antibody and DAPI. The cellular levels of p-histone H3 were analyzed using Target Activation V2 algorithm (Cellomics) to determine the percentage of positive cells. For the imaging assays, the concentration-response curves and corresponding IC50 and EC50 values were calculated using the percentage of cells affected versus the DMSO control.
(§2) Tumor cells were treated with AMG 900, AZD1152, MK-0457, or PHA-739358 (range concentration varied based on potency) for 24 hours and processed for cell-cycle analysis (DNA staining only) as previously described (1). Cells were analyzed on a LSRII flow cytometer using BD FACS Diva software. The concentration-response curves and corresponding EC50 values were calculated using the percentage of cells with ≧4N DNA content versus the DMSO control.

[2] = tested on: SNU499; assay: Cellular EC50, additional cell lines (Table 6-B); type: cell-based; conditions: Homo sapiens, Liver, P-gp+
Description: as §1, §2

[3] = tested on: three matched taxol-resistant and -sensitive tumor cell lines; assay: Matched taxol-resistant and -sensitive tumor cell lines (summary); type: cell-based; conditions: Homo sapiens; all three matched taxol-resistant and -sensitive tumor cell lines
Description: MES-SA Dx5 and MES-SA cells were plated at a density of 10,000 cells/well onto 96-well plate in complete media and cultured for 24 hours. […] Cells were washed and fixed by adding 100 μL of 2× formaldehyde fixation buffer for 10 minutes and room temperature. […] Cells were immunostained with p-histone H3 antibody (5 μg/mL) and incubated at room temperature for 2 hours. Cells were washed in 100 μL of wash buffer. Next, cells were incubated with a goat anti-rabbit alexa-488 conjugated antibody (1.5 μg/mL) in wash buffer supplemented with Hoechest DNA dye (1 μg/mL) and incubated at room temperature in the dark for 30 minutes. Cells were washed twice with 100 μL of wash buffer. The 96-well plates were analyzed on an ArrayScan VTi (Cellomics) using a bioapplication algorithm (TargetActivation.V2). […] NCI-H460 parental and NCI-H460 taxol-resistant cells were seeded at a density of 500,000 cells/well in a 6-well plate in 2 mL of appropriate complete media. The next day cells were treated with AMG 900 or taxol over a 6-point concentration range with a final DMSO concentration of 0.05% in media. After 24 hours, cells were pulsed with BrdU (1:100 dilution) and harvested. […] Data was acquired and analyzed by flow cytomety (LSRII). […] The +4N (same as ≧4N) DNA content or SubG1 cellular EC50 values were calculated using a 4-parameter equation. […] Data was acquired and analyzed by flow cytometry (LSRII). […]

[4] = tested on: HCT116 xenograft; assay: Xenograft tumor growth inhibition (Example 7); type: in vivo, mice; conditions: HCT116, Colon; oral 15 mg/kg b.i.d. 2 consecutive days per week or 3 mg/kg b.i.d. every day, 3 weeks
Description: Mice were injected subcutaneously with 2×10^6 human HCT 116 colon tumor cells. When tumors were established (approximately 200 mm^3), mice were randomized into experimental treatment groups (n=10) and treated orally with AMG 900 at 1.5, 2.25 or 3 mg/kg everyday or, 3.75, 7.5 or 15 mg/kg intermittently for the duration of the experiment. Mice were provided nutritional supplements on a daily basis. Tumor volumes and body weights were recorded twice per week using caliper and analytical digital scale, respectfully. Tumor data were represented by mean tumor volume +/−SEM. Statistical significance for tumor growth inhibition was determined by repeated measurements ANOVA (RMANOVA) followed by Scheffe post-hoc analysis.
The in-vivo effect of AMG 900 on tumor growth was further evaluated in a panel of human xenografts from five different tumor types (breast, colon, lung, pancreatic, and uterine), including three MDR xenograft models. Mice bearing established tumors were orally administered AMG 900 at 15 mg/kg b.i.d. for 2 consecutive days per week for 3 weeks or at 3 mg/kg b.i.d. every day for 3 weeks. The maximum percentage of tumor growth inhibition (TGI) is reported, in Table 7 below, for each xenograft model. The percentage of TGI was calculated as the difference between the change in vehicle-treated control and AMG 900-treated tumor volumes during the study period.

[5] = tested on: MDA-MB-231 PTX paclitaxel resistant; assay: p-histone H3 fluorescence-based cell imaging assay; set-up: species or system human; conditions: Homo sapiens
Description: as §1

[6] = tested on: NCI-H460 parental; assay: p-histone H3 fluorescence-based cell imaging assay; set-up: species or system human; conditions: Homo sapiens, P-gp −
Description: as §1

[7] = tested on: NCI-H460 PTX paclitaxel resistant; assay: p-histone H3 fluorescence-based cell imaging assay; set-up: species or system human; conditions: Homo sapiens
Description: as §1

Cc1csc(-c2nnc(Nc3ccc(Oc4ncccc4-c4ccnc(N)n4)cc3)c3ccccc23)c1 [AMG 900, N-(4-((3-(2-amino-4-pyrimidinyl)-2-pyridinyl)oxy)phenyl)-4-(4-methyl-2-thienyl)-1-phthalazinamine]
EC50 [1]: 4 nM
EC50 [2]: 2 nM
EC50 [3]: < 2 nM
Maximum TGI (%) [4]: 85** %
EC50 ([5]; MDA-MB-231-PTX*, Breast, P-gp+, read-out: Cellular EC50): 3 nM
IC50 ([5]; MDA-MB-231 PTX paclitaxel resistant, P-gp +): 3 nM
IC50 [6]: 3 nM
EC50 ([7]; NCI-H460-PTX*, Lung, P-gp+, read-out: Cellular EC50): 3 nM
IC50 ([7]; NCI-H460 PTX paclitaxel resistant, P-gp +): 3 nM
